Test results published in patent US10968232B2 (Merck Sharp & Dohme Corp., priority 2016, dated 2021).
Like-named read-outs stand apart in the source and are kept apart here. Blank lines part the entries; values can stand above or below the molecule they belong to.

Molecular target: T1, human GPR40 (Homo sapiens, UniProt O14842)
T1 construct: expressed in transfected cells
Assay: Inositol Phosphate Turnover (IP1) Assay
Type: cell-based
Conditions: HEK cells stably expressing human GPR40, CisBio IP-One kit, 60 minutes at 37 degrees
Protocol: Human GPR40 stable cell-lines were generated in HEK cells. The expression plasmids were transfected using lipofectamine (Life Technologies) following manufacturer's instructions. Stable cell-lines were generated following drug selection and single cell cloning. The assay was performed in 384-well format. HEK cells stably expressing human GPR40 were plated at 7500 cells per well in growth medium (DMEM/10% fetal calf serum). Cell plates were then incubated 16 hours at 37 degrees in a 5% CO2 incubator. Measurement of Inositol Phosphate Turnover (IP1) was performed using the CisBio IP-One kit (Part number 62IPAPEB). After the 16 hour incubation, the growth media was removed by centrifugation using the BlueWasher (AusWasher GUI Ver. v1.0.1.8) Protocol #21-“Light Dry” and 10 ul of stimulation buffer (prepared as described in the kit) was added to each well. In a separate plate, compounds were diluted in DMSO (200-fold over the final concentration in the assay well) and 50 nl was acoustically transferred to the appropriate well in the assay cell plate. The plates were then incubated for 60 minutes at 37 degrees in a 5% CO2 incubator. 10 ul of detection buffer (also prepared as described in the IP-One kit) was added to each well and the plates were incubated at room temperature for 60 minutes in the dark. The plates were then read in a Perkin Elmer EnVision or equivalent reader able to measure FRET. […] Data was normalized to % activity using a reference compound and EC50s determined using a standard 4-parameter fit.

T1 sequence (O14842 whole entry): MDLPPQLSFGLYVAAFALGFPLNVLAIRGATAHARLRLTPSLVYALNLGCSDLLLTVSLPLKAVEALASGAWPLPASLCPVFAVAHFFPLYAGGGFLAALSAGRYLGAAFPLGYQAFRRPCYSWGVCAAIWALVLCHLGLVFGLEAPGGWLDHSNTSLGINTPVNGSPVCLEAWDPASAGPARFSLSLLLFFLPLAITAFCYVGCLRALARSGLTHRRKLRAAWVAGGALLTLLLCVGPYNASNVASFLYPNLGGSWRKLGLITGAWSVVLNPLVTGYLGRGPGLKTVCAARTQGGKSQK

Structure (SMILES): C[C@H](C(=O)O)[C@H](c1ccc2c(c1)OC1(CCCN([C@@H](C)c3cc(C(F)(F)F)ccc3C(F)(F)F)C1)CC2)C1CC1 (single isomer, unassigned) [Example 75, (2S,3R)-3-((S or R)-1′-((S)-1-(2,5-bis (trifluoromethyl)phenyl)-ethyl)spiro[chroman-2,3′-piperidin]-7-yl)-3-cyclopropyl-2-methylpropanoic acid]
- EC50 (read-out: Human IP1 EC50): 0.374 nM

Structure (SMILES): CC(c1cc(F)cc(F)c1Cl)N1CCC2(CCc3ccc([C@H](C4CC4)[C@H](C)C(=O)O)cc3O2)CC1 (single isomer, unassigned) [Example 19]
- EC50 (read-out: Human IP1 EC50): 37.6 nM

Structure (SMILES): C[C@H](C(=O)O)[C@H](c1ccc2c(c1)OC1(CC2)CCN(c2ccccc2C(F)(F)F)CC1)C1CC1 [Example 35, sodium (2S,3R)-3-cyclopropyl-2-methyl-3-(1′-(2-(trifluoromethyl)phenyl)-spiro[chroman-2,4′-piperidin]-7-yl)propanoate]
- EC50 (read-out: Human IP1 EC50): 5.79 nM

Structure (SMILES): C[C@H](C(=O)O)[C@H](c1ccc2c(c1)OC1(CC2)[C@@H]2CC[C@H]1CN([C@H](C)c1cc(F)ccc1C(F)(F)F)C2)C1CC1 (stereo partly drawn) [Example 84, (2S,3R)-3-cyclopropyl-3-((1R,5S)-3-((R)-1-(5-fluoro-2-(trifluoro-methyl)phenyl)ethyl)-3-azaspiro[bicyclo[3.2.1]oc-tane-8,2′-chroman]-7′-yl)-2-methylpropanoic acid]
- EC50 (read-out: Human IP1 EC50): 28.5 nM

Structure (SMILES): C[C@H](C(=O)O)[C@H](c1ccc2c(c1)OC1(CC2)CCN(Cc2cc(C(F)(F)F)ccc2C(F)(F)F)CC1)C1CC1 [Example 129, Sodium (2S,3R)-3-(1′-(2,5-bis(trifluoromethyl)benzyl)spiro[chromane-2,4′-piperidin]-7-yl)-3-cyclopropyl-2-methylpropanoate]
- EC50 (read-out: Human IP1 EC50): 3.8 nM

Structure (SMILES): C[C@H](C(=O)O)[C@H](c1ccc2c(c1)OC1(CCCN([C@@H](C)c3cc(C(F)(F)F)ccc3C(F)(F)F)CC1)CC2)C1CC1 (single isomer, unassigned) [Example 51, (2S,3R)-3-((R or S)-1-((S)-1-(2,5-bis (trifluoromethyl)phenyl)ethyl)spiro[azepane-4,2′-chroman]-7′-yl)-3-cyclopropyl-2-methylpropanoic acid]
- EC50 (read-out: Human IP1 EC50): 14.1 nM

Structure (SMILES): COc1cc(C(C)N2CCC3(CCc4ccc([C@H](C5CC5)[C@H](C)C(=O)O)cc4O3)CC2)c(C(F)(F)F)cn1 (single isomer, unassigned) [Example 107, sodium (2S,3R)-3-cyclo-propyl-3-(1′-((S or R)-1-(2-methoxy-5-(trifluoro-methyl)pyridin-4-yl)ethyl)spiro[chroman-2,4′-piperidin]-7-yl)-2-methylpropanoate]
- EC50 (read-out: Human IP1 EC50): 2.12 nM

Structure (SMILES): C[C@H](C(=O)O)[C@H](c1ccc2c(c1)OC1(CC2)CC(N(C)[C@H](C)c2cc(C(F)(F)F)ccc2C(F)(F)F)C1)C1CC1 (stereo partly shown) [Example 101]
- EC50 (read-out: Human IP1 EC50): 17 nM

Structure (SMILES): C[C@H](C(=O)O)[C@H](c1ccc2c(c1)OC1(CC2)CCN(Cc2cc(C(F)(F)F)cc(Cl)c2F)CC1)C1CC1 [Example 24, (2S,3R)-3-(1′-(3-chloro-2-fluoro-5-(trifluoromethyl)benzyl)spiro[chroman-2,4′-piperidin]-7-yl)-3-cyclopropyl-2-methylpropanoic Acid]
- EC50 (read-out: Human IP1 EC50): 11.2 nM

Structure (SMILES): C[C@H](C(=O)O)[C@H](c1ccc2c(c1F)OC1(CC2)CCN(Cc2cc(C(F)(F)F)ccc2C(F)(F)F)CC1)C1CC1 [Example 8, (2S,3R)-3-(1′-(2,5-bis-(trifluoromethyl)benzyl)-8-fluoro-spiro[chroman-2,4′-piperidin]-7-yl)-3-cyclopropyl-2-methyl-propanoic acid]
- EC50 (read-out: Human IP1 EC50): 20.6 nM

Structure (SMILES): C[C@H](C(=O)O)[C@H](c1ccc2c(c1)OC1(CC2)CCC(Nc2cc(C(F)(F)F)ccc2C(F)(F)F)CC1)C1CC1 (single isomer, unassigned) [Example 64]
- EC50 (read-out: Human IP1 EC50): 27.9 nM

Structure (SMILES): C[C@H](C(=O)O)[C@H](c1ccc2c(c1)OC1(CC2)CCC(Nc2ncccc2C(F)(F)F)CC1)C1CC1 (single isomer, unassigned) [Example 68]
- EC50 (read-out: Human IP1 EC50): 0.41 nM

Structure (SMILES): C[C@H](C(=O)O)[C@H](c1ccc2c(c1F)OC1(CC2)CCN([C@H](C)c2cc(C(F)(F)F)ccc2Cl)CC1)C1CC1 (mixture of isomers) [Example 12, (2S,3R)-3-(1′-((RS)-1-(2-chloro-5-(trifluoro-methyl)phenyl)ethyl)-8-fluorospiro[chroman-2,4′-piperidin]-7-yl)-3-cyclopropyl-2-methylpropanoic acid]
- EC50 (read-out: Human IP1 EC50): 995 nM

Structure (SMILES): COc1ccc(C(F)(F)F)c(C(C)N2CCC3(CCc4ccc([C@H](C5CC5)[C@H](C)C(=O)O)cc4O3)CC2)n1 (single isomer, unassigned) [Example 105, sodium (2S,3R)-3-cyclo-propyl-3-(1′-((S or R)-1-(6-methoxy-3-(trifluoromethyl)pyridin-2-yl)ethyl)-spiro-[chroman-2,4′-piperidin]-7-yl)-2-methylpropanoate]
- EC50 (read-out: Human IP1 EC50): 126 nM

Structure (SMILES): C[C@H](C(=O)O)[C@H](c1ccc2c(c1)OC1(CC2)CCC(N(C)c2ncccc2C(F)(F)F)CC1)C1CC1 (single isomer, unassigned) [Example 69]
- EC50 (read-out: Human IP1 EC50): 0.416 nM

Structure (SMILES): C[C@H](C(=O)O)[C@H](c1ccc2c(c1)OC1(CC2)CC(NCc2cc(C(F)(F)F)ccc2C(F)(F)F)C1)C1CC1 (single isomer, unassigned) [Example 95]
- EC50 (read-out: Human IP1 EC50): 48.6 nM

Now from value to molecule:

- EC50 (read-out: Human IP1 EC50): 11 nM
Structure (SMILES): CC(c1cc(C(F)(F)F)ccc1F)N1CCC2(CCc3ccc([C@H](C4CC4)[C@H](C)C(=O)O)cc3O2)CC1 (mixture of isomers) [Example 28, (2S,3R)-3-cyclopropyl-3-(1′-((RS)-1-(2-fluoro-5-(trifluoromethyl)phenyl)ethyl)spiro[chroman-2,4′-piperidin]-7-yl)-2-methylpropanoic acid]

- EC50 (read-out: Human IP1 EC50): 4.43 nM
Structure (SMILES): CC(c1cc(C2CC2)ccc1C(F)(F)F)N1CCC2(CCc3ccc([C@H](C4CC4)[C@H](C)C(=O)O)cc3O2)CC1 (single isomer, unassigned) [Example 58, (2S,3R)-3-cyclopropyl-3-(1′-((S or R)-1-(5-cyclo-propyl-2-(trifluoromethyl)-phenyl)ethyl)-spiro [chroman-2,4′-piperidin]-7-yl)-2-methylpropanoic acid]

- EC50 (read-out: Human IP1 EC50): 36.9 nM
Structure (SMILES): CC(c1cc(-c2ccoc2)ccc1OC(F)(F)F)N1CCC2(CCc3ccc([C@H](C4CC4)[C@H](C)C(=O)O)cc3O2)CC1 (single isomer, unassigned) [Example 117, (2S,3R)-3-cyclopropyl-3-(1′-((R or S)-1-(5-(furan-3-yl)-2-(trifluoro-methoxy)-phenyl)ethyl)spiro[chroman-2,4′-piperidin]-7-yl)-2-methylpropanoic acid]

- EC50 (read-out: Human IP1 EC50): 1.4 nM
Structure (SMILES): CC(c1cc(C2CC2)ccc1C(F)(F)F)N1CCC2(CCc3ccc([C@H](C4CC4)[C@H](C)C(=O)O)cc3O2)CC1 (single isomer, unassigned) [Example 57, (2S,3R)-3-cyclopropyl-3-(1′-((R or S)-1-(5-cyclopropyl-2-(trifluoromethyl)phenyl)-ethyl)-spiro[chroman-2,4′-piperidin]-7-yl)-2-methylpropanoic Acid]

- EC50 (Human IP1 EC50 (nM)): 15.8 nM
Structure (SMILES): CC(c1cc(C(F)(F)F)cc(Cl)c1F)N1CCC2(CCc3ccc([C@H](C4CC4)[C@H](C)C(=O)O)cc3O2)CC1 (single isomer, unassigned) [Example 108, (2S,3R)-3-(1′-((R or S)-1-(3-chloro-2-fluoro-5-(trifluoromethyl)phenyl)ethyl)spiro-[chroman-2,4′-piperidin]-7-yl)-3-cyclopropyl-2-methylpropanoic Acid]

- EC50 (read-out: Human IP1 EC50): 1.4 nM
Structure (SMILES): CC(c1cc(Cl)ccc1OC(F)(F)F)N1CCC2(CCc3ccc([C@H](C4CC4)[C@H](C)C(=O)O)cc3O2)CC1 (stereo partly drawn) [Example 134, Sodium (2S,3R)-3-(1′-(1-(5-chloro-2-(trifluoromethoxy)phenyl)ethyl)spiro[chromane-2,4′-piperidin]-7-yl)-3-cyclopropyl-2-methylpropanoate]

- EC50 (read-out: Human IP1 EC50): 3.29 nM
Structure (SMILES): CC(c1cc(F)ccc1OC(F)(F)F)N1CCC2(CCc3ccc([C@H](C4CC4)[C@H](C)C(=O)O)c(F)c3O2)CC1 (stereo partly drawn) [Example 2, (2S,3R)-3-cyclopropyl-3-(8-fluoro-1′-(1-(5-fluoro-2-(trifluoro-methoxy)phenyl)ethyl)-spiro[chroman-2,4′-piperidin]-7-yl)-2-methylpropanoic acid]

- EC50 (read-out: Human IP1 EC50): 501 nM
Structure (SMILES): CCc1[nH]c(C(=O)O)cc1-c1ccc(OC(F)(F)F)c(C(C)N2CCC3(CCc4ccc([C@H](C5CC5)[C@H](C)C(=O)O)cc4O3)CC2)c1 (single isomer, unassigned) [Example 120, 4-(3-((S or R)-1-(7-((1R,2S)-2-carboxy-1-cyclopropylpropyl)spiro[chro-man-2,4′-piperidin]-1′-yl)ethyl)-4-(trifluoro-methoxy)phenyl)-5-ethyl-1H-pyrrole-2-carboxylic acid]

- EC50 (read-out: Human IP1 EC50): 3.6 nM
Structure (SMILES): CC(c1cc(C(F)(F)F)ccc1C1CC1)N1CCC2(CCc3ccc([C@H](C4CC4)[C@H](C)C(=O)O)cc3O2)CC1 (single isomer, unassigned) [Example 13, sodium (2S,3R)-3-cyclo-propyl-3-(1′-((R or S)-1-(2-cyclopropyl-5-(trifluoromethyl)phenyl)ethyl)spiro[chroman-2,4′-piperidin]-7-yl)-2-methylpropanoale]
